{"source": "paper PMC11302688", "about": "“The Effect of Replication Protein A Inhibition and Post-Translational Modification on ATR Kinase Signaling” (Research Square, 2024)", "key": {"ATR-ATRIP": {"target": "T1, ATR-ATRIP (Homo sapiens, UniProt P27694)", "T1 construct": "His (C); purchased Eurofins DiscoverX 14–953", "assay": "Reconstituted ATR kinase assay (western blot of phosphorylation targets)", "format": "biochemical", "conditions": "for ATR-dependent phosphorylation of RPA32 Ser33 and Thr21 / ATR-dependent phosphorylation of p53 Ser15: reconstituted reaction with ssDNA, RPA, TopBP1, ATR-ATRIP, western blot; for IC50: fully reconstituted ATR kinase reaction", "source_text": "The minimal requirements to reconstitute ATR signaling in vitro are ssDNA, RPA, TopBP1, and ATR-ATRIP, and a phosphorylation target[51]–[54]. We used a similar experimental design with purified RPA, TopBP1, p53, and ATR-ATRIP, and reconstituted ATR activation and signaling using an M13mp18 ssDNA plasmid (Figure S1A-B). It has been reported that TopBP1 can stimulate ATR activity independent of RPA and in the presence or absence of a variety of DNA substrates at specific protein and salt concentrations, though the physiological relevance is unknown. We, therefore, first established physiological experimental conditions to reflect the dependence of ATR kinase activity on RPA, ssDNA, and TopBP1 by monitoring the phosphorylation of the ATR target p53 at Ser15. Low, background levels of ATR-dependent p53 phosphorylation are observed with various combinations of ssDNA, RPA, and TopBP1, however, as expected, maximal activation is observed only in the presence of all three (Fig. 1A–B). Importantly, p53 phosphorylation under our assay conditions was dependent upon RPA and ssDNA. […] (Fig. 1A–B). The RPA70 OB-F domain interacts with p53, and this interaction is thought to facilitate the recruitment of p53 for ATR phosphorylation. p53 also has weak ssDNA binding affinity that could influence it as a substrate for ATR, so we next compared the phosphorylation of wild-type (WT) p53 with that of the DNA-binding-impaired p53 R175H mutant. […] We then evaluated the impact of chemical RPA inhibition on ATR-dependent p53 phosphorylation in the reconstituted reactions. We first assessed the activity of RPA inhibitors that block the RPA-ssDNA interaction (RPA-DBi).\nKinase assays were performed in 15 mM HEPES pH 7.9, 30 mM KCl, 3 mM MgCl2, 5% glycerol, 1x phosphatase inhibitor cocktail 2 (Sigma-Aldrich, P5726), 0.5 mM DTT. RPAi were suspended in 100% DMSO, and the DMSO concentration in the final reaction mixture was kept constant at 5%. In a typical reaction (20 μL), 20 ng ATR-ATRIP, 20 nM TopBP1, 20 nM RPA, and 40 nM p53 were initially incubated on ice for 15 min. Reactions were initiated by the addition of 100 μM ATP and 1 ng M13mp18 ssDNA plasmid and incubated at 37°C for 1 hr. Reactions were quenched by the addition of 6x Laemmli buffer and brief boiling at 95°C. For reactions with RPAi, inhibitors were added for the initial 15 min incubation on ice. For reactions with pRPA, the indicated proteins (same concentrations as above) were incubated with 0.5 ng/μL DNA-PK, 100 μM ATP, and 1 ng M13mp18 ssDNA plasmid for 30 min at 37°C. Reactions were moved back to ice and 100 nM NU7441 was added to inhibit further DNA-PK kinase activity (for subsequent ATR kinase reactions) or quenched with 6x Laemmli buffer and brief boiling at 95°C (for control reactions). The remaining components required for ATR kinase reaction were then added to each reaction as indicated and returned to 37°C for 1 hr before quenching in the same manner as above. Proteins were separated by SDS-PAGE and transferred to polyvinylidene difluoride (PVDF) membranes (Bio-Rad, 1620177). Immunoblotting for RPA32 pSer33 (Thermo Fisher Scientific, A300–246A), RPA32 pSer4/8 (Thermo Fisher Scientific, A300–245A), RPA32 (Thermo Fisher Scientific, PA5–2256), and TopBP1 pSer1138 (Thermo Fisher Scientific, PA5–114666) were conducted in Tris-buffered saline (TBS)/0.5% Tween20 and immunoblotting for p53 pSer15 (Cell Signaling Technology, 9284S), p53 (Cell Signaling Technology, 2524S), and RPA32 pThr21 (Thermo Fisher Scientific, PA5–104809) were conducted in TBS/0.1% Tween20. All membranes were blocked with 2% BSA in TBS/Tween20 and incubated rocking at 4°C overnight. Membranes were washed with TBS/Tween20 and incubated with the corresponding IgG-horseradish peroxidase (HRP) secondary antibody (Bio-Rad, 1706515 & 1706516) for two hours at room temperature with orbital shaking. […]"}, "[1]": {"tested_on": "ATR phosphorylation events", "design": "method as in PMID 25070753", "conditions": "cited from earlier work"}, "RPA [2]": {"target": "T2, RPA (Homo sapiens, UniProt P27694)", "T2 construct": "His (C); made in house; host or cells: E. coli BL21(DE3)", "T2 sequence (P27694 whole entry)": "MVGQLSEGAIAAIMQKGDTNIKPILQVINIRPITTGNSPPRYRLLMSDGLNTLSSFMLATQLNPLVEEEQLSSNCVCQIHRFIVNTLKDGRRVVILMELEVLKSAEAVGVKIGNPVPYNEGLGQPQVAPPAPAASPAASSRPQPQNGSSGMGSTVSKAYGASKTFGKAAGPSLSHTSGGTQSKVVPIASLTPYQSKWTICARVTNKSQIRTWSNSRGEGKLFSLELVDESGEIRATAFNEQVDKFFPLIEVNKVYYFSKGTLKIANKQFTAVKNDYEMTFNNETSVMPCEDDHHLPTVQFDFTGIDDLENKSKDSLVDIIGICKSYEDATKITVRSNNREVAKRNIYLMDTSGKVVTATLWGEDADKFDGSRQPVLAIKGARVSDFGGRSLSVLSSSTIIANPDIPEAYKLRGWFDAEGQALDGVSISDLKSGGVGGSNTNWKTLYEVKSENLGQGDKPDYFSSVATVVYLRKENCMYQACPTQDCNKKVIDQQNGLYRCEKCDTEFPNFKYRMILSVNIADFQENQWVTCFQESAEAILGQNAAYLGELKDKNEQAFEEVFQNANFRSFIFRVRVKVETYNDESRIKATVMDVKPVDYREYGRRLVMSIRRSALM", "T2 sequence (P15927 whole entry partner)": "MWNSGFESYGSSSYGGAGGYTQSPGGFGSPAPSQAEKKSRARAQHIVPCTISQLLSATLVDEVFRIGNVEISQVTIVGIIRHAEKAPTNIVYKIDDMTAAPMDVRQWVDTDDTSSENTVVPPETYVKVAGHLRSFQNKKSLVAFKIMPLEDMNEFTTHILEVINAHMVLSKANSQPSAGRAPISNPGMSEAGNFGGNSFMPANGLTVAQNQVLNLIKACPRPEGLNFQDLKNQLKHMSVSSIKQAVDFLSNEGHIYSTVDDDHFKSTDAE", "T2 sequence (P35244 whole entry partner)": "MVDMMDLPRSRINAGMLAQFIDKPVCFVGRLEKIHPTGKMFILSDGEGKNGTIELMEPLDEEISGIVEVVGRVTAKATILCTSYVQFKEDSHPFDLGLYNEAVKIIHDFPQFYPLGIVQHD", "design": "method as in PMID 25070753", "conditions": "cited from earlier work"}, "RPA [3]": {"target": "T2, RPA", "conditions": "read-out: in vitro RPA-DNA binding inhibition IC50; cited from earlier work"}, "[4]": {"target": "RPA (His-tagged heterotrimer RPA70/RPA32/RPA14) (UniProt P27694;P15927;P35244 1-616;1-270;1-121)", "sequence (P27694 whole entry, chain 1 of 3)": "as the sequence (P27694 whole entry) above", "sequence (P15927 whole entry, chain 2 of 3)": "as the sequence (P15927 whole entry partner) above", "sequence (P35244 whole entry, chain 3 of 3)": "as the sequence (P35244 whole entry partner) above", "assay": "EMSA; binding not disrupted by PAME 12.5-200 uM; PAME EMSA: 10 mM Tris pH 7.5, 10 mM NaCl, 10% glycerol, 25 C, 10 nM DNA, 7 nM (ssDNA) or 14 nM (duplex) RPA, 1% agarose; acetylation EMSA: 20 mM HEPES pH 7.8, 50 mM NaCl, 1 mM DTT, 5% DMSO, 0.001% NP-40, RT, 2.5 nM DNA, 6% native PAGE", "conditions": "protein: recombinant; tags: His (on RPA70, plasmid p11d-tRPA70-His); copies: 1;1;1; label: 5' IRDye700; single strand"}}, "note": "Read-outs that look alike come from different tables or passages of the source."}
{"molecule": "O=C1C=Cc2ccccc2/C1=C/Nc1ccccc1O", "note": "[HAMNO, (1Z)-1-[(2-hydroxyanilino)methylidene]naphthalen-2-one]", "values": [{"measurement": "IC50 for RPA32 phosphorylation (both residues) lower than that of p53 phosphorylation", "setting": "ATR-ATRIP; RPA32 Ser33 and Thr21 vs p53 Ser15", "result": "~ 10 fold"}, {"measurement": "ATR-dependent phosphorylation of RPA32 Ser33 and Thr21", "setting": "ATR-ATRIP", "result": "inhibited"}, {"measurement": "ATR-dependent phosphorylation of p53 Ser15", "setting": "ATR-ATRIP", "result": "inhibited"}, {"measurement": "levels of ATR phosphorylation events in treated cells", "setting": "[1]", "result": "lower levels of ATR phosphorylation events"}, {"measurement": "RPA ssDNA binding", "setting": "RPA [2]", "result": "did not disrupt"}]}
{"molecule": "CCOc1ccc2cc(C3CC(c4ccc(I)cc4)=NN3C(=O)CCCC(=O)O)c(Cl)nc2c1", "note": "(stereo not drawn) [TDRL-551]", "values": [{"measurement": "IC50", "setting": "ATR-ATRIP; read-out: IC50 for ATR-dependent RPA32 Ser33 phosphorylation", "result": "5 to 10", "unit": "µM"}, {"measurement": "IC50", "setting": "ATR-ATRIP; read-out: IC50 for ATR-dependent RPA32 Thr21 phosphorylation", "result": "5 to 10", "unit": "µM"}, {"measurement": "IC50", "setting": "ATR-ATRIP; read-out: IC50 for ATR-dependent p53 Ser15 phosphorylation", "result": "5 to 10", "unit": "µM"}, {"measurement": "RPA phosphorylation at RPA32 Ser33 and Thr21 at low inhibitor concentration", "setting": "ATR-ATRIP; low concentrations of inhibitor (Fig. 2C, lane 3), not observed with p53 Ser15", "result": "stimulated"}, {"measurement": "ATR-dependent phosphorylation of RPA32 Ser33 and Thr21", "setting": "ATR-ATRIP", "result": "dose-dependent inhibition"}, {"measurement": "ATR-dependent phosphorylation of p53 Ser15", "setting": "ATR-ATRIP", "result": "titratable inhibition"}, {"measurement": "IC50", "setting": "RPA [3]", "result": "~15", "unit": "µM"}]}
{"molecule": "CS(=O)(=O)c1ccc(-c2cnc(N)c(C(=O)Nc3ccccc3)n2)cc1", "note": "[VE-821]", "values": [{"measurement": "ATR-dependent phosphorylation of RPA32 Ser33 and Thr21", "setting": "ATR-ATRIP", "result": "abolished"}, {"measurement": "ATR-dependent phosphorylation of p53 Ser15", "setting": "ATR-ATRIP", "result": "no p53 phosphorylation is observed"}]}
{"molecule": "TTTTTTTTTTTTTTTTTTTTTTTTTTTTTT (ssDNA)", "note": "[polyT 30mer]", "values": [{"measurement": "binding result", "setting": "[4]", "result": "binds"}]}
